In patent US20040229960A1, “Compositions and methods of administering tubulin binding agents for the treatment of ocular diseases” (priority 2001, published 2004):

Experiments:
[1] = Biodistribution of 14C-CA4P following topical administration of a solution formulation; assay type: in vivo, New Zealand rabbits
Procedure: (§1) ^14C-CA4P (OXiGENE Inc., Watertown, Mass.) was resuspended in 100 ul volume of saline solution and injected with a 30 G needle into the right eyes of anesthesized male New Zealand rabbits (4 months old, 1.8-2.5 kg, n=3 per sample). Three different concentrations of ^14C-CA4P were tested (1, 10, 100 mg/ml) corresponding to doses of 1, 5, and 5 uCi of applied radioactivity respectively. A blank control group was also included. Rabbits were anaesthetized at 1, 6, 24, and 48 hours for blood sampling. After blood collection, the animals were euthanized by Phenobarbital injection and the treated right eyes were removed from all test animals. Ocular tissue samples were dissected from the cornea, aqueous humor, vitreous humor, choroid, or retina, placed in 20-mi glass scintillation vials, vortexed, and incubated for 24 hrs with 500 ul digesting fluid. Plasma was separated from whole blood by centrifugation (1,800 g for 10 minutes). Both ocular tissue samples and plasma were incubated at room temperature with 16 ml of Hionic Fluor™ scintillation fluid for a period of 24 hours prior to radioactivity counting. Each sample was counted for 5 minutes in a Betamatic V counter (Bio-Tek Kontron Instruments, St Quentin en Yvelines, France). The conversion of counts per minute (“cpm”) into disintegrations per minute (“dpm”) was performed automatically by the beta-counter, using calibration curves obtained from ^14C-standards and quenching curves from the respective blank matrices spiked with ^14C-standards. The concentration of drug was determined according to nanogram equivalents of CA4P (ng-Eq/g of tissue) which was calculated from the measured dpm value, the weight of the tissue specimen, and the specific activity of the drug (0.37 mCi/mg), followed by subtraction of the corresponding background value from control eye tissue. A tissue concentration of 1 uM CA4P is equal to […] tissue.
(§2) Topical gels and solutions were developed for use as topical formulation suitable for the topical delivery of CA4P to the surface of the eye. Topical solutions (1, 3, and 10%) was directly prepared in 0.9% NaCl (Aguettant, Lyon, France) and sterilized with 0.2 um filter (pH 6.4 to 8.5, osmolarity 290 to 459 mosmol/kg H2O. Low viscosity topical gels (1,3,and 10%) were prepared in 0.5% carboxymethylcellulose (Sigma Aldrich Chimie, St. Quentin Fallavier Cedex, France) with 0.9% NaCl. The physicochemical specifications of each gel are listed in Table 5
(§3) Topical formulations were applied to the surface of right eyes at an applied dose of 5 uCi in a volume of 50 ul. Cornea was sampled instead of sclera. Samples were taken at […] and 24 hours.

[2] = system: corneal neovascularization; assay: LHP-induced rabbit corneal neovascularization model, IP treatment; assay type: in vivo, New Zealand rabbits; details: late intervention, 50 mg/kg IP from Day 10 (Group 4)
[3] = Biodistribution of 14C-CA4P following periocular injection; assay type: in vivo, New Zealand rabbits
Procedure: as §1

[4] = Biodistribution of 14C-CA4P following topical administration of a gel; assay type: in vivo, New Zealand rabbits
Procedure: as §1, §2, §3

[5] = Primary ocular irritation, topical drops; assay type: in vivo
Procedure: The test article, CA4P, was evaluated for primary ocular irritation. A single 0.2 ml dose of CA4P dilution (0.1, 1.0, 10 and 100 mg/ml) was placed in the lower conjunctival sac of the left eye […]. The contralateral eye received buffered saline solution. Ocular reactions were evaluated at 24, 48 and 72 hours after the sample instillation.

`COc1ccc(/C=C\c2cc(OC)c(OC)c(OC)c2)cc1OP(=O)([O-])[O-].[Na+].[Na+]` [CA4P, combretastatin A4 disodium phosphate] showed a Cmax ([1]; aqueous humor, 1% topical solution) of 0.6 µM, a Cmax ([1]; aqueous humor, 3% topical solution) of 1.9 µM and a Cmax ([1]; aqueous humor, 10% topical solution) of 4.1 µM. The Cmax ([1]; choroid, 1% topical solution) was 0.87 µM, the Cmax ([1]; choroid, 3% topical solution) was 1.9 µM and the Cmax ([1]; choroid, 10% topical solution) was 15.6 µM. For the same molecule, the Cmax ([1]; cornea, 1% topical solution, 50 ul) was 10 µM, the Cmax ([1]; cornea, 3% topical solution, 50 ul) was 34 µM and the Cmax ([1]; cornea, 10% topical solution, 50 ul) was 104 µM. For the same molecule, the “Concentration of drug delivered” value ([1]; cornea, all three solution formulations) was > 1 µM, the Cmax ([1]; plasma, 1% topical solution) was 0.07 µM and the Cmax ([1]; plasma, 3% topical solution) was 0.84 µM. For the same molecule, the Cmax ([1]; plasma, 10% topical solution) was 1.27 µM, the Cmax ([1]; retina, 1% topical solution) was 0.27 µM and the Cmax ([1]; retina, 3% topical solution) was 0.39 µM. The Cmax ([1]; retina, 10% topical solution) was 4.2 µM, the “Time of highest concentrations of drug in the eye” value (“Time” below) ([1]; topical solution) was “within the first hour” and the “Vessel Length on Day 24” value [2] was 1.4 ± 0.46 mm. The Cmax ([3]; choroid, 1 mg/ml periocular) was 14.3 µM, the Cmax ([3]; choroid, 10 mg/ml periocular) was 74.5 µM and the Cmax ([3]; choroid, 100 mg/ml periocular) was 1040 µM. The “Time” value ([3]; periocular injection) was “within the first hour”, the Cmax ([3]; plasma, 1 mg/ml periocular) was 0.07 µM and the Cmax ([3]; plasma, 10 mg/ml periocular) was 0.79 µM. For the same molecule, the Cmax ([3]; plasma, 100 mg/ml periocular) was 12.3 µM, the “Concentration of drug delivered” value ([3]; retina and choroid, all administered doses, periocular) was > 1 µM and the Cmax ([3]; retina, 1 mg/ml periocular) was 4.4 µM. For the same molecule, the Cmax ([3]; retina, 10 mg/ml periocular) was 54 µM, the Cmax ([3]; retina, 100 mg/ml periocular) was 169 µM and the Cmax ([3]; sclera, 1 mg/ml periocular) was 18 µM. The Cmax ([3]; sclera, 10 mg/ml periocular) was 280 µM, the Cmax ([3]; sclera, 100 mg/ml periocular) was 3370 µM and the Cmax ([3]; vitreous, 1 mg/ml periocular) was 0.03 µM. It also gave a Cmax ([3]; vitreous, 10 mg/ml periocular) of 0.34 µM, a Cmax ([3]; vitreous, 100 mg/ml periocular) of 3.35 µM and a Cmax ([4]; aqueous humor, 1% topical gel) of 2.4 µM. It also gave a Cmax ([4]; aqueous humor, 3% topical gel) of 8.2 µM, a Cmax ([4]; aqueous humor, 10% topical gel) of 13 µM and a Cmax ([4]; choroid, 1% topical gel) of 2.8 µM. The Cmax ([4]; choroid, 3% topical gel) was 10.7 µM, the Cmax ([4]; choroid, 10% topical gel) was 22.5 µM and the “Concentration of drug delivered” value ([4]; cornea, retina and choroid, all three gel formulations) was > 1 µM. The Cmax ([4]; cornea, 1% topical gel, 50 ul) was 82 µM, the Cmax ([4]; cornea, 3% topical gel, 50 ul) was 118 µM and the Cmax ([4]; cornea, 10% topical gel, 50 ul) was 292 µM. It also gave a Cmax ([4]; plasma, 1% topical gel) of 0.09 µM, a Cmax ([4]; plasma, 3% topical gel) of 0.56 µM and a Cmax ([4]; plasma, 10% topical gel) of 1.63 µM. The Cmax ([4]; retina, 1% topical gel) was 1 µM, the Cmax ([4]; retina, 3% topical gel) was 5.8 µM and the Cmax ([4]; retina, 10% topical gel) was 5.8 µM. For the same molecule, the “Time” value ([4]; topical gel) was “within the first hour”, the “Irritation (Draize Scores)” value ([5]; Topical, 0-10 mg) was “No Irritation” and the “Macroscopic ocular reaction vs control” value ([5]; all dilutions 0.1-100 mg/ml, single 0.2 ml topical dose, 24-72 h) was “insignificant”. For the same molecule, the “Microscopic ocular irritation vs buffered saline” value ([5]; topical drops 0.1-100 mg/ml) was “not considered an irritant”.
